{
  "source": "patent US20220009951A1",
  "about": "“TORSEMIDE PHOSPHATE PRODRUG, PREPARATION METHOD AND COMPOSITION THEREOF” (Shanghai Xunhe Pharmaceutical Technology Co. Ltd., priority 2019, published 2022)",
  "key": {"[1]": {"assay": "Comparison of water solubility of different forms of samples"}, "Male SD rats": {"test_system": "Male SD rats", "assay": "Comparison of diuretic effects (urine output of saline-loaded rats)", "format": "in vivo, rat", "details": "30 mL/kg normal saline intragastrically, drug 10 mg/kg iv, urine collected for 4 h", "protocol": "Comparison of Diuretic Effects:\nMale SD rats (body weight 180±20 g) were divided into seven groups randomly, three rats a group, and each rat was administered intragastrically 30 mL/kg normal saline. After intragastric administration of normal saline, except the blank control group, each group was given one drug (10 mg/kg, iv, 1 mg/mL, formulation prescription: 0.5% methylcellulose), and the urination was collected for 4 hours."}, "[2]": {"details": "cited from earlier work"}, "[3]": {"details": "cited from earlier work", "remark": "listed apart in the source"}},
  "note": "“Also recorded” adds a separate entry of the source. Structures can show the parent of a compound that is named as a salt.",
  "data": [
    {"smiles": "Cc1cccc(Nc2ccncc2S(=O)(=O)N(COP(=O)(O)O)C(=O)NC(C)C)c1", "note": "[Compound of formula I, N-hydroxymethyl-torsemide phosphate]", "values": [
      {"measurement": "Conclusion (water solubility class)", "setting": "[1]", "value": "soluble"},
      {"measurement": "Urine output (mL/kg, 4 h)", "setting": "Male SD rats", "value": 105.4, "unit": "mL/kg"}
    ]},
    {"smiles": "Cc1cccc(Nc2ccncc2S(=O)(=O)N(COP(=O)([O-])[O-])C(=O)NC(C)C)c1.[Na+].[Na+]", "note": "[Compound of formula Ia, disodium N-hydroxymethyl-torsemide phosphate]", "values": [
      {"measurement": "Urine output (mL/kg, 4 h)", "setting": "Male SD rats", "value": 121.6, "unit": "mL/kg"}
    ]},
    {"smiles": "Cc1cccc(Nc2ccncc2S(=O)(=O)NC(=O)NC(C)C)c1", "note": "[Torsemide, 1-[4-(3-methylphenyl)aminopyridin-3-yl]sulfonyl-3-isopropylurea]", "values": [
      {"measurement": "solubility in 0.1 mol/L sodium hydroxide solution", "setting": "[2]; 0.1 mol/L sodium hydroxide solution", "value": "slightly soluble"},
      {"measurement": "solubility in water", "setting": "[2]; water", "value": "almost insoluble; also recorded: very slightly soluble"},
      {"measurement": "Urine output (mL/kg, 4 h)", "setting": "Male SD rats", "value": 100.3, "unit": "mL/kg"},
      {"measurement": "pKa value", "setting": "[3]", "value": 6.44}
    ]},
    {"smiles": "Cc1cccc(Nc2ccncc2S(=O)(=O)N(COP(=O)(O)O)C(=O)NC(C)C)c1", "note": "[Compound of formula Id, N-hydroxymethyl-torsemide phosphate tri-n-butylammonium salt]", "values": [
      {"measurement": "Conclusion (water solubility class)", "setting": "[1]", "value": "easily soluble"},
      {"measurement": "Urine output (mL/kg, 4 h)", "setting": "Male SD rats", "value": 105.6, "unit": "mL/kg"}
    ]},
    {"smiles": "Cc1cccc(Nc2ccncc2S(=O)(=O)N(COP(=O)([O-])[O-])C(=O)NC(C)C)c1.[K+].[K+]", "note": "[Compound of formula Ib, dipotassium N-hydroxymethyl-torsemide phosphate]", "values": [
      {"measurement": "Urine output (mL/kg, 4 h)", "setting": "Male SD rats", "value": 116.8, "unit": "mL/kg"}
    ]},
    {"smiles": "Cc1cccc(Nc2ccncc2S(=O)(=O)N(COP(=O)(O)O)C(=O)NC(C)C)c1", "note": "[Compound of formula Ic, N-hydroxymethyl-torsemide phosphate triethylammonium salt]", "values": [
      {"measurement": "Conclusion (water solubility class)", "setting": "[1]", "value": "easily soluble"},
      {"measurement": "Urine output (mL/kg, 4 h)", "setting": "Male SD rats", "value": 103.4, "unit": "mL/kg"}
    ]}
  ]
}
